Measurements from ChEMBL document CHEMBL1201862, “PubChem BioAssay data set” (2004).
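Protocol summary: plate cells (96-well), add compound at 5 concentrations, incubate 48 h, interpolate endpoints linearly. The concentration for 50% growth inhibition is given as GI50.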 Calls of active or inactive are those of the source. Rule as the data show it: active = GI50 up to about 1.1 µM and inactive = higher.

Tests used:
Assay in all cases: growth of human tumour cells (NCI), 48 h
NCI-H522 = test system: NCI-H522
TK-10 = test system: TK-10
UO-31 = test system: UO-31
NCI-H226 = test system: NCI-H226
A498 = test system: A498
OVCAR-3 = test system: OVCAR-3
M14 = test system: M14
CAKI-1 = test system: CAKI-1
HCC 2998 = test system: HCC 2998
HL-60 = test system: HL-60
SK-MEL-28 = test system: SK-MEL-28
SK-OV-3 = test system: SK-OV-3
LXFL 529 = test system: LXFL 529
UACC-257 = test system: UACC-257
DMS-273 = test system: DMS-273
NCI-H460 = test system: NCI-H460
DLD-1 = test system: DLD-1
SN12C = test system: SN12C
KM12 = test system: KM12
MOLT-4 = test system: MOLT-4
U-251 = test system: U-251
LOX IMVI = test system: LOX IMVI
SF-295 = test system: SF-295
UACC-62 = test system: UACC-62
EKVX = test system: EKVX
COLO 205 = test system: COLO 205
RPMI-8226 = test system: RPMI-8226
NCI-H23 = test system: NCI-H23
ACHN = test system: ACHN
OVCAR-4 = test system: OVCAR-4
HOP-62 = test system: HOP-62
SF-539 = test system: SF-539
HT-29 = test system: HT-29
SK-MEL-5 = test system: SK-MEL-5
HCT-15 = test system: HCT-15
786-0 = test system: 786-0
SNB-19 = test system: SNB-19
SR = test system: SR
Malme-3M = test system: Malme-3M
K562 = test system: K562
DMS-114 = test system: DMS-114
SW-620 = test system: SW-620
M19-MEL = test system: M19-MEL
CCRF-CEM = test system: CCRF-CEM
HCT-116 = test system: HCT-116
SNB-75 = test system: SNB-75
A549 = test system: A549
SK-MEL-2 = test system: SK-MEL-2
SF-268 = test system: SF-268
IGROV-1 = test system: IGROV-1
OVCAR-8 = test system: OVCAR-8
BT-549 = test system: BT-549
OVCAR-5 = test system: OVCAR-5
KM-20L2 = test system: KM-20L2

CCOC(=O)[C@H](Cc1ccccc1)NC(=O)c1nc[nH]c1[N+](=O)[O-] was tested, and the GI50 (NCI-H522) was > 100 µM (inactive), the GI50 (TK-10) was > 100 µM (inactive) and the GI50 (UO-31) was > 100 µM (inactive). For the same compound, the GI50 (NCI-H226) was > 100 µM (inactive), the GI50 (A498) was > 100 µM (inactive) and the GI50 (OVCAR-3) was > 100 µM (inactive). For the same compound, the GI50 (M14) was > 100 µM (inactive), the GI50 (CAKI-1) was > 100 µM (inactive) and the GI50 (HCC 2998) was > 100 µM (inactive). The GI50 (HL-60) was > 100 µM (inactive), the GI50 (SK-MEL-28) was > 100 µM (inactive) and the GI50 (SK-OV-3) was > 100 µM (inactive). For the same compound, the GI50 (LXFL 529) was > 100 µM (inactive), the GI50 (UACC-257) was > 100 µM (inactive) and the GI50 (DMS-273) was > 100 µM (inactive). For the same compound, the GI50 (NCI-H460) was > 100 µM (inactive), the GI50 (DLD-1) was > 100 µM (inactive) and the GI50 (SN12C) was > 100 µM (inactive). The GI50 (KM12) was > 100 µM (inactive), the GI50 (MOLT-4) was > 100 µM (inactive) and the GI50 (U-251) was > 100 µM (inactive). For the same compound, the GI50 (LOX IMVI) was > 100 µM (inactive), the GI50 (SF-295) was > 100 µM (inactive) and the GI50 (UACC-62) was > 100 µM (inactive). For the same compound, the GI50 (EKVX) was > 100 µM (inactive), the GI50 (COLO 205) was > 100 µM (inactive) and the GI50 (RPMI-8226) was > 100 µM (inactive). For the same compound, the GI50 (NCI-H23) was > 100 µM (inactive), the GI50 (ACHN) was > 100 µM (inactive) and the GI50 (OVCAR-4) was > 100 µM (inactive). The GI50 (HOP-62) was > 100 µM (inactive), the GI50 (SF-539) was > 100 µM (inactive) and the GI50 (HT-29) was > 100 µM (inactive). The GI50 (SK-MEL-5) was > 100 µM (inactive), the GI50 (HCT-15) was > 100 µM and the GI50 (786-0) was > 100 µM (inactive). For the same compound, the GI50 (SNB-19) was > 100 µM (inactive), the GI50 (SR) was > 100 µM (inactive) and the GI50 (Malme-3M) was > 100 µM (inactive). The GI50 (K562) was > 100 µM (inactive), the GI50 (DMS-114) was > 100 µM (inactive) and the GI50 (SW-620) was > 100 µM (inactive). The GI50 (M19-MEL) was > 100 µM (inactive), the GI50 (CCRF-CEM) was > 100 µM (inactive) and the GI50 (HCT-116) was > 100 µM (inactive). For the same compound, the GI50 (SNB-75) was > 100 µM (inactive), the GI50 (A549) was > 100 µM (inactive) and the GI50 (SK-MEL-2) was > 100 µM (inactive). For the same compound, the GI50 (SF-268) was > 100 µM (inactive), the GI50 (IGROV-1) was > 100 µM (inactive) and the GI50 (OVCAR-8) was > 100 µM (inactive).

COc1ccc(/C=C\c2cc(OC)c(OC)c(OC)c2)cc1O was tested, and the GI50 (TK-10) was 56.9 µM (inactive), the GI50 (BT-549) was 23.9 µM (inactive) and the GI50 (EKVX) was 14.7 µM (inactive). For the same compound, the GI50 (COLO 205) was 2.9 µM (inactive), the GI50 (OVCAR-5) was 5.43 µM (inactive) and the GI50 (KM-20L2) was 2.01 µM (inactive). The GI50 (HT-29) was 3.84 µM (inactive) and the GI50 (IGROV-1) was < 0.02 µM (active).
